# PubChem BioAssay (NCI)
#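 Cells were grown in 96-well plates and exposed to each compound for 48 hours at five concentrations; endpoints were interpolated linearly between bracketing concentrations, or set to the highest concentration if not reached. TGI: total growth inhibition.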
# Columns and labels:
# Assay in all cases: NCI tumour cell line growth inhibition, 48 h
# MDA-MB-435 = system: MDA-MB-435
# OVCAR-3 ovarian = system: OVCAR-3 ovarian
# SF-539 CNS = system: SF-539 CNS
# IGROV1 ovarian = system: IGROV1 ovarian
# LOX IMVI melanoma = system: LOX IMVI melanoma
# CCRF-CEM leukemia = system: CCRF-CEM leukemia
# DU-145 prostate = system: DU-145 prostate
# A549 NSCLC = system: A549 NSCLC
# NCI-H522 lung = system: NCI-H522 lung
# HT29 colon = system: HT29 colon
# UO-31 renal = system: UO-31 renal
# KM12 colon = system: KM12 colon
# PC-3 prostate = system: PC-3 prostate
# SK-OV-3 ovarian = system: SK-OV-3 ovarian
# MDA-N = system: MDA-N
# SK-MEL-5 melanoma = system: SK-MEL-5 melanoma
# M14 melanoma = system: M14 melanoma
# T-47D breast = system: T-47D breast
# SK-MEL-2 melanoma = system: SK-MEL-2 melanoma
# U251 CNS = system: U251 CNS
# K-562 leukemia = system: K-562 leukemia
# CAKI-1 renal = system: CAKI-1 renal
# EKVX NSCLC = system: EKVX NSCLC
# SF-268 CNS = system: SF-268 CNS
# HCC-2998 colon = system: HCC-2998 colon
# OVCAR-4 ovarian = system: OVCAR-4 ovarian
# SNB-19 CNS = system: SNB-19 CNS
# MCF7 breast = system: MCF7 breast
# NCI-H460 lung = system: NCI-H460 lung
# NCI/ADR-RES ovarian = system: NCI/ADR-RES ovarian
# COLO 205 colon = system: COLO 205 colon
# NCI-H23 lung = system: NCI-H23 lung
# UACC-257 melanoma = system: UACC-257 melanoma
# UACC-62 melanoma = system: UACC-62 melanoma
# SW-620 colon = system: SW-620 colon
# OVCAR-8 ovarian = system: OVCAR-8 ovarian
# HCT-116 colon = system: HCT-116 colon
# OVCAR-5 ovarian = system: OVCAR-5 ovarian
# HCT-15 colon = system: HCT-15 colon
# BT-549 breast = system: BT-549 breast
# SF-295 CNS = system: SF-295 CNS
# MDA-MB-231 breast = system: MDA-MB-231 breast
# MALME-3M melanoma = system: MALME-3M melanoma
# TK-10 renal = system: TK-10 renal
# RXF 393 renal = system: RXF 393 renal
# SNB-75 CNS = system: SNB-75 CNS
# SR leukemia = system: SR leukemia
# 786-0 renal = system: 786-0 renal
# RPMI-8226 leukemia = system: RPMI-8226 leukemia
# SK-MEL-28 melanoma = system: SK-MEL-28 melanoma
# SN12C renal = system: SN12C renal
# HS 578T breast = system: HS 578T breast
# MOLT-4 leukemia = system: MOLT-4 leukemia
# HOP-62 NSCLC = system: HOP-62 NSCLC
# ACHN renal = system: ACHN renal
# HOP-92 NSCLC = system: HOP-92 NSCLC
# A498 renal = system: A498 renal
# NCI-H226 lung = system: NCI-H226 lung
# HL-60(TB) leukemia = system: HL-60(TB) leukemia
smiles,measurement,setting,value
Clc1sc(Cl)c2c1[C@H](Br)C[C@@H]2Cl,TGI,MDA-MB-435,40.8 µM
same,TGI,OVCAR-3 ovarian,64.9 µM
same,TGI,SF-539 CNS,37.1 µM
same,TGI,IGROV1 ovarian,44.6 µM
same,TGI,LOX IMVI melanoma,49.5 µM
same,TGI,CCRF-CEM leukemia,52.9 µM
same,TGI,DU-145 prostate,> 100 µM
same,TGI,A549 NSCLC,> 100 µM
same,TGI,NCI-H522 lung,33.5 µM
same,TGI,HT29 colon,> 100 µM
same,TGI,UO-31 renal,43.8 µM
same,TGI,KM12 colon,> 100 µM
same,TGI,PC-3 prostate,> 100 µM
same,TGI,SK-OV-3 ovarian,> 100 µM
same,TGI,MDA-N,> 100 µM
same,TGI,SK-MEL-5 melanoma,> 100 µM
same,TGI,M14 melanoma,54.5 µM
same,TGI,T-47D breast,> 100 µM
same,TGI,SK-MEL-2 melanoma,> 100 µM
same,TGI,U251 CNS,83.8 µM
same,TGI,K-562 leukemia,> 100 µM
same,TGI,CAKI-1 renal,64.2 µM
same,TGI,EKVX NSCLC,> 100 µM
same,TGI,SF-268 CNS,49.9 µM
same,TGI,HCC-2998 colon,> 100 µM
same,TGI,OVCAR-4 ovarian,> 100 µM
same,TGI,SNB-19 CNS,> 100 µM
same,TGI,MCF7 breast,50.8 µM
same,TGI,NCI-H460 lung,> 100 µM
same,TGI,NCI/ADR-RES ovarian,44.2 µM
same,TGI,COLO 205 colon,44.3 µM
same,TGI,NCI-H23 lung,43.2 µM
same,TGI,UACC-257 melanoma,78.2 µM
same,TGI,UACC-62 melanoma,69.1 µM
same,TGI,SW-620 colon,45.6 µM
same,TGI,OVCAR-8 ovarian,99 µM
same,TGI,HCT-116 colon,65.9 µM
same,TGI,OVCAR-5 ovarian,> 100 µM
same,TGI,HCT-15 colon,40.7 µM
same,TGI,BT-549 breast,40.3 µM
same,TGI,SF-295 CNS,> 100 µM
same,TGI,MDA-MB-231 breast,51.3 µM
same,TGI,MALME-3M melanoma,49.4 µM
same,TGI,TK-10 renal,87.7 µM
same,TGI,RXF 393 renal,87.6 µM
same,TGI,SNB-75 CNS,> 100 µM
same,TGI,SR leukemia,39.5 µM
same,TGI,786-0 renal,99.1 µM
same,TGI,RPMI-8226 leukemia,> 100 µM
same,TGI,SK-MEL-28 melanoma,71 µM
same,TGI,SN12C renal,85.3 µM
same,TGI,HS 578T breast,49.8 µM
same,TGI,MOLT-4 leukemia,53.1 µM
same,TGI,HOP-62 NSCLC,> 100 µM
same,TGI,ACHN renal,37.4 µM
CC(C)NC(=O)OCc1c(COC(=O)NC(C)C)n(C)c2c1ccc1cc(Cl)c(Cl)cc12,TGI,MDA-MB-435,19.5 µM
same,TGI,OVCAR-3 ovarian,31.1 µM
same,TGI,SF-539 CNS,27.1 µM
same,TGI,IGROV1 ovarian,22.2 µM
same,TGI,HOP-92 NSCLC,24.3 µM
same,TGI,LOX IMVI melanoma,20.9 µM
same,TGI,CCRF-CEM leukemia,> 100 µM
same,TGI,A549 NSCLC,95.7 µM
same,TGI,NCI-H522 lung,13.1 µM
same,TGI,A498 renal,4.85 µM
same,TGI,HT29 colon,29.3 µM
same,TGI,UO-31 renal,32.8 µM
same,TGI,PC-3 prostate,29 µM
same,TGI,SK-OV-3 ovarian,63.3 µM
same,TGI,MDA-N,26.5 µM
same,TGI,SK-MEL-5 melanoma,30.1 µM
same,TGI,M14 melanoma,29.2 µM
same,TGI,T-47D breast,18.8 µM
same,TGI,SK-MEL-2 melanoma,32.2 µM
same,TGI,U251 CNS,29.3 µM
same,TGI,K-562 leukemia,> 100 µM
same,TGI,CAKI-1 renal,12.6 µM
same,TGI,EKVX NSCLC,41.9 µM
same,TGI,SF-268 CNS,29.4 µM
same,TGI,OVCAR-4 ovarian,54.8 µM
same,TGI,SNB-19 CNS,26.6 µM
same,TGI,MCF7 breast,14.9 µM
same,TGI,NCI-H460 lung,16.3 µM
same,TGI,NCI/ADR-RES ovarian,36.8 µM
same,TGI,COLO 205 colon,22.8 µM
same,TGI,NCI-H23 lung,31.1 µM
same,TGI,UACC-257 melanoma,30.6 µM
same,TGI,UACC-62 melanoma,28 µM
same,TGI,SW-620 colon,23.5 µM
same,TGI,OVCAR-8 ovarian,23.8 µM
same,TGI,HCT-116 colon,24 µM
same,TGI,OVCAR-5 ovarian,29.4 µM
same,TGI,HCT-15 colon,28.7 µM
same,TGI,BT-549 breast,30.7 µM
same,TGI,SF-295 CNS,30.8 µM
same,TGI,MDA-MB-231 breast,25.3 µM
same,TGI,MALME-3M melanoma,22.7 µM
same,TGI,TK-10 renal,19.4 µM
same,TGI,RXF 393 renal,25 µM
same,TGI,SNB-75 CNS,28.4 µM
same,TGI,SR leukemia,30.6 µM
same,TGI,786-0 renal,20.5 µM
same,TGI,RPMI-8226 leukemia,39.5 µM
same,TGI,HS 578T breast,68.9 µM
same,TGI,MOLT-4 leukemia,27.9 µM
same,TGI,HOP-62 NSCLC,28 µM
same,TGI,ACHN renal,24 µM
same,TGI,NCI-H226 lung,17.3 µM
C/C(=C\CO)CC[C@@H]1[C@@]2(C)CCCC(C)(C)[C@@H]2CC[C@@]1(C)O,TGI,MDA-MB-435,34.6 µM
same,TGI,OVCAR-3 ovarian,27.6 µM
same,TGI,SF-539 CNS,32.4 µM
same,TGI,IGROV1 ovarian,35.5 µM
same,TGI,HOP-92 NSCLC,32.4 µM
same,TGI,LOX IMVI melanoma,30.2 µM
same,TGI,CCRF-CEM leukemia,51.5 µM
same,TGI,DU-145 prostate,34.3 µM
same,TGI,A549 NSCLC,92.7 µM
same,TGI,NCI-H522 lung,31.4 µM
same,TGI,A498 renal,30.7 µM
same,TGI,HT29 colon,51.2 µM
same,TGI,UO-31 renal,50.3 µM
same,TGI,KM12 colon,43 µM
same,TGI,PC-3 prostate,30 µM
same,TGI,SK-OV-3 ovarian,57.1 µM
same,TGI,MDA-N,38 µM
same,TGI,SK-MEL-5 melanoma,31.8 µM
same,TGI,M14 melanoma,53.6 µM
same,TGI,T-47D breast,51.3 µM
same,TGI,SK-MEL-2 melanoma,31.4 µM
same,TGI,U251 CNS,31 µM
same,TGI,K-562 leukemia,34.7 µM
same,TGI,CAKI-1 renal,72.1 µM
same,TGI,EKVX NSCLC,51.5 µM
same,TGI,SF-268 CNS,32.4 µM
same,TGI,HCC-2998 colon,29.5 µM
same,TGI,OVCAR-4 ovarian,34.2 µM
same,TGI,SNB-19 CNS,42.9 µM
same,TGI,MCF7 breast,30.8 µM
same,TGI,NCI-H460 lung,31.3 µM
same,TGI,NCI/ADR-RES ovarian,31.9 µM
same,TGI,COLO 205 colon,32.7 µM
same,TGI,NCI-H23 lung,40 µM
same,TGI,UACC-257 melanoma,38 µM
same,TGI,UACC-62 melanoma,27.1 µM
same,TGI,SW-620 colon,50.5 µM
same,TGI,OVCAR-8 ovarian,31.8 µM
same,TGI,HCT-116 colon,43.5 µM
same,TGI,OVCAR-5 ovarian,49.3 µM
same,TGI,HCT-15 colon,33.7 µM
same,TGI,BT-549 breast,32.6 µM
same,TGI,SF-295 CNS,33.7 µM
same,TGI,MDA-MB-231 breast,31 µM
same,TGI,HL-60(TB) leukemia,45.7 µM
same,TGI,MALME-3M melanoma,36.3 µM
same,TGI,TK-10 renal,31.3 µM
same,TGI,RXF 393 renal,35 µM
same,TGI,SNB-75 CNS,34.7 µM
same,TGI,786-0 renal,39.8 µM
same,TGI,RPMI-8226 leukemia,36.5 µM
same,TGI,SK-MEL-28 melanoma,43.2 µM
same,TGI,SN12C renal,33.8 µM
same,TGI,HS 578T breast,56.4 µM
same,TGI,MOLT-4 leukemia,69.2 µM
same,TGI,ACHN renal,> 100 µM
same,TGI,NCI-H226 lung,33.4 µM
